# In patent US6107104A, “Modulators of anchoring protein function” (ICOS Corporation, priority 1996, dated 2000):
# Ends that are not written are not given here.
# Key:
# [1] = tested on: IL-2 transcription in Jurkat T cell line (NFATZ); assay: NFATZ Jurkat IL-2 promoter lacZ β-gal FACS assay; assay type: cell-based
# Source text: IL- 2 transcription was studied following activation with PMA and ionomycin. These two agents are known respectively to potentiate protein kinase C and calcium second messenger responses (including activation of CaN). Protein kinase C activates the Ras-Raf-1-Mek-MAP Kinase pathway that participates in induction of the nuclear component of NFAT. The increased calcium concentration activates calcineurin which, in turn, activates the cytoplasmic component of NFAT and allows translocation to the nucleus.
# Each of the peptides was myristilated as described in Eichholtz et al., J. Biol. Chem., 268:1982-1986 (1993).
# Incubation with forskolin/IBMX elevates intracellular cAMP concentrations (FIG. 4), thereby activating PKA. Finally, phorbol 12-myristate 13-acetate (PMA) (10 ng/ml) and ionomycin (2 μM) were added and incubations continued for 4 hr. Controls were incubated with PMA/ionomycin alone or forskolin/IBMX and PMA/ionomycin under conditions as described above. During the last 20 min of the PMA/ionomycin incubation, chloroquine (300 μM) was added to inhibit endogenous lysosomal β-gal activity. The cells were spun out and resuspended in 50 μl of culture medium to which 50 μl of fluorescein di-β-D-galactopyranoside (FDG) was added (0.1 mM final concentration; Molecular Probes). […] The lacZ β-gal activity was measured by flow cytometry configured for fluorescein analysis.
# AKAP 79/RII binding = assay: Scintillation proximity assay of TRX-AKAP 79/3H-RII binding; conditions: read-out: IC50 of inhibition of AKAP 79/RII binding
# Source text: Initially, a thioredoxin TRX-AKAP 79 fusion protein expression plasmid was constructed. See, generally, LaVallie, et al., BIO/TECHNOLOGY 11:187-193 (1993). Briefly, a XhaI/HindIII thioredoxin fragment was subcloned into pUC 19 containing a lac Z gene and a tacZ promoter. The resulting plasmid was designated TRX F/S pUC19. In order to insert an AKAP 79 encoding sequence into TRX F/S pUC19, an NcoI site was created with an oligonucleotide (SEQ ID NO:32) having terminal SpeI and HindIII sequences. Following SpeI/HindIII digestion, the oligonucleotide was inserted into the vector and an NcoI/XhoI fragment encoding AKAP 79 was ligated in frame with the thioredoxin gene. The fusion protein was expressed in E. coli and immobilized on 96-well ScintiStrip plates (Wallac, Turbu, Finland) which contained a scintillator embedded in the solid support. […] When ^3 H-RII bound to AKAP 79, the label was brought sufficiently close to the support-embedded scintillator, resulting in emission detected in a MicroBeta scintillation counter.
# The scintillation proximity assay (SPA) screening protocol described in Example 8 was employed to determine the ability of various chemicals to inhibit binding between AKAP 79 and ^3 H-RII. […] Percent binding was determined by the measuring the amount of radioactivity in each well compared to the amount of radioactivity in wells wherein only AKAP 79 and ^3 H-RII were introduced.
# CaN = molecular target: T1, CaN (Rattus norvegicus, UniProt P63329); assay: CaN phosphatase activity toward 32P RII peptide substrate; assay type: biochemical; conditions: Ca2+/calmodulin dependent CaN 30 nM, 32P RII peptide substrate
# T1 construct: made in house; host or cells: Sf9 cells (baculovirus)
# Procedure: (§1) To determine whether AKAP 79 peptide binding inhibits CaN activity, CaN phosphatase activity was assayed in the presence of recombinant AKAP 79. Briefly, recombinant AKAP 79 was expressed in E. coli as described in Carr et al., J. Biol. Chem., 267:16816-16823 (1992), incorporated herein by reference. CaN and the constitutively active truncation mutant CaN420 (a truncated, Ca^2+ /calmodulin independent constitutively active form of CaN (Perrino et al., J. Biol. Chem., in press)) were expressed in Sf9 cells and purified on calmodulin-Sepharose as described in Perrino et al., J. Biol Chem., 267:15965-15969 (1992), incorporated herein by reference. Phosphatase activity toward ^32 P RII peptide substrate was measured as described in Perrino et al., supra. CaN (30 nM), calmodulin (100 nM) and ^32 P RII peptide (22 μM) were incubated with AKAP 79 protein and AKAP 79 peptide (SEQ ID NO:1-amino acids 81-102) over the range of concentrations indicated in FIG. 1B. Calmodulin was omitted from CaN420 assays. ^32 P released from the substrate was measured in triplicate samples in three separate experiments by scintillation counting. The inhibition constant (Ki) of recombinant AKAP 79 for CaN was determined by linear regression analysis of data. Ki values for AKAP 79 peptide were estimated by determining the IC50 using a fixed substrate concentration at Km (42 μM).
# CaN420 = molecular target: T2, CaN420 (Rattus norvegicus, UniProt P63329); assay: CaN420 phosphatase activity toward 32P RII peptide substrate; assay type: biochemical; conditions: calmodulin omitted
# T2 construct: a truncated, Ca^2+ /calmodulin independent constitutively active form of CaN; made in house; host or cells: Sf9 cells (baculovirus)
# Procedure: as §1
# CaN A = molecular target: T3, CaN A (Rattus norvegicus, UniProt P63329); assay: ELISA and modified ELISA, AKAP 79 binding to immobilized CaN A
# T3 construct: the deletion mutant form of CaN A is used in the assays described above in place of full length CaN A; made in house; host or cells: Sf9 cells (baculovirus); construct from Vollum Institute
# Procedure: Two different capture methods were used. In one method, CaN A was first captured on plates by passive coating, AKAP 79 or biotinylated AKAP 79 was added, and complex formation detected by either ELISA or by streptavidin-HRP. In another method, rabbit anti-mouse antibodies were first captured on plates, mouse anti-TRX antibodies added and captured, and TRX-AKAP 79 added and captured. This method was similar to the capture method used for AKAP 79/^3 H-RII SPA. Biotinylated CaN A was then added, and the complex detected by streptavidin-HRP.
# (§2) Specifically, in the first method, recombinant CaN A, expressed as described above, was added to wells of Immulon plates (Dynatech) in a 35 mM sodium bicarbonate/15 mM sodium carbonate buffer, pH 9.6. Proteins bound to the surface of the wells by plastic/protein interaction. As a positive control, RII, and a negative control, bovine serum albumin (BSA) were separately and similarly captured in individual wells and assayed in this method. Nonspecific sites in the wells were blocked with a buffer containing 2.5% milk in 50 mM sodium citrate and 145 mM sodium chloride. Full length TRX-AKAP 79 was added in a final volume of 100 μl and after up to 2 hours incubation, free and non-specific proteins were removed with several washes with PBS/0.5% Tween 20. A mouse anti-AKAP 79 monoclonal antibody, generated against recombinant AKAP 79, was added to each well, followed by addition of a horse radish peroxidase (HRP)-conjugated goat anti-mouse antibody. HRP substrate tetramethylbenzidine (TMB) was added and absorbance at 450 nm determined using a Dynatech 96 well plate reader.
# In the modified ELISA, standard ELISA techniques were employed except that HRP-conjugated streptavidin was used to detect bound biotinylated AKAP 79 instead of an anti-AKAP 79 monoclonal antibody. Briefly, after incubation of immobilized CaN A with biotinylated AKAP 79, HRP-conjugated streptavidin was added for 30 minutes. […] Bound streptavidin was detected with HRP substrate TMB and absorbance measured at 450 nm using a Dynatech 96 well plate reader. […]
# PKC = PKC activity assay with EGF receptor peptide substrate; assay type: biochemical
# Procedure: In order to asses the ability of these peptides to modulate PKC activity, the following assay was performed in the presence and absence of AKAP 79 peptide fragments. PKC [50 nM dissolved in 50 mM tris-HCl (pH 7.4), 5 mM MgCl2 1.2 mM CaCl2, 1 mM DTT, 1 mM EGTA and 100 μg/ml PS] was incubated with EGF receptor peptide substrate (5 μM) at 30° C. for five minutes. Phosphorylation reaction was initiated by addition of 100 μM ^32 P-ATP (500 cpm/pmol) and the reaction allowed to proceed for ten minutes at 30° C. Aliquots of reaction mixture were removed and spotted into P81 filter paper and the reaction terminated by washing the filter paper with excess 75 mM phosphoric acid (three washes for three minutes each). After a final wash in ethanol, the p81 filters were dried and radioactivity was measured by liquid scintillation counting.
# PKC/AKAP 79 interaction = assay: PKC overlay assay; assay type: binding, rabbit
# Procedure: In order to determine if the 75 kDa protein identified may be the bovine homolog of AKAP 79, the PKC overlay assay was used to probe AKAP 79 and related fragments. Briefly, proteins were separated by SDS-polyacrylamide electrophoresis (SDS-PAGE) and blotted to nitrocellulose following standard protocols. Samples were blocked in Blotto [1 mg/ml bovine serum albumin (BSA), 5% dry milk in Tris-buffered saline (TBS)] and incubated for one hour at room temperature in assay buffer [TBS containing 1 mg/ml BSA, 1.2 mM calcium, 1 mM EGTA, 20 μg/ml phosphatidylserine (PS), 2 μg/ml leupeptin, 2 μg/ml pepstatin and 3 μg/ml of partially purified rabbit brain PKC]. Bound PKC was detected with monoclonal antibody M7, which recognizes both PKCα and β, following standard chemiluminescent detection methods.
# RII = assay: ELISA and modified ELISA, AKAP 79 binding to immobilized RII
# Procedure: as §2
# In the modified ELISA, standard ELISA techniques were employed except that HRP-conjugated streptavidin was used to detect bound biotinylated AKAP 79 instead of an anti-AKAP 79 monoclonal antibody. Briefly, after incubation of immobilized CaN A with biotinylated AKAP 79, HRP-conjugated streptavidin was added for 30 minutes. Unbound protein was removed with multiple washes of PBS/0.05% Tween 20. Bound streptavidin was detected with HRP substrate TMB and absorbance measured at 450 nm using a Dynatech 96 well plate reader. As in the ELISA described above, RII was immobilized and assayed as a positive control, and BSA as a negative control.
substance,measurement,setting,value
"Asp-Leu-Ile-Glu-Glu-Ala-Ala-Ser-Arg-Ile-Val-Asp-Ala-Val-Ile-Glu-Gln-Val-Lys-Ala-Ala-Gly-Ala-Tyr (DLIEEAASRIVDAVIEQVKAAGAY; also: myristoylated, place not given here) [myristilated Ht31 peptide, amino acids 493-515 of the full length Ht31 protein, myristilated]",reversal of forskolin/IBMX blockade of PMA/ionomycin induced β-gal activity,[1]; 100 μM myristilated peptide,completely reversed
"Ht31 peptide: Ht31 peptide (SEQ ID NO:4), blocks anchoring protein binding to RII (DLIEEAAVSRIVDAVIEEVKAAGA) [reference compound]",IC50,AKAP 79/RII binding,50 nM
same,inhibition of full-length CaN phosphatase activity,CaN,not an inhibitor
AKAP 79: recombinant anchoring protein AKAP 79 expressed in E. coli,inhibition of CaN420 phosphatase activity,CaN420,non-competitive manner
same,inhibition of full-length CaN phosphatase activity,CaN,non-competitive manner
same,binding to immobilized CaN A,CaN A,bound
"peptide containing residues 31-52: synthetic peptide of residues 31-52 of AKAP 79 (KASMLCFKRRKKAAKALKPKAG; UniProt P24588 31-52, looked up, fragment)",effect of incubation with CaM on inhibition of PKC,"PKC; CaM 15 μM, excess Ca2+",prevented inhibition
same,type of inhibition of PKC activity,PKC; EGF receptor peptide as substrate,mixed inhibition
same,IC50,PKC; read-out: IC50 of inhibition of PKC activity,2000 nM
same,block of PKC/AKAP 79 interaction,PKC/AKAP 79 interaction,blocked
"myristilated AKAP 75 peptide: myristilated peptide of amino acids 81-108 of AKAP 75 (SEQ ID NO:8) (SIKRLVTRRKRSESSKQQKPFKAKLQSE; also: myristoylated, place not given here)",reduction of PMA/ionomycin induced β-gal activity,[1]; 10 μM in the medium,40-50%
"AKAP 79/M108: biotinylated AKAP 79 truncation, first 108 amino terminal residues deleted",recognition of immobilized RII,RII,specifically recognized
"unlabeled RII: unlabeled RII regulatory subunit of PKA, reference inhibitor",IC50,AKAP 79/RII binding,1 nM
"AKAP 79/Met247: biotinylated AKAP 79 truncation, first 247 amino terminal amino acids deleted",binding to immobilized CaN A,CaN A,no specific binding
same,recognition of immobilized RII,RII,specifically recognized
"AKAP 79/Met159: biotinylated AKAP 79 truncation, first 159 amino terminal amino acids deleted",binding to immobilized CaN A,CaN A,no specific binding
same,recognition of immobilized RII,RII,specifically recognized
